Reference: patent publication EP0546474A1, “Pseurotin F1/F2, new metabolites from Aspergillus fumigatus, process for their preparation and their use as apomorphine antagonists” (HOECHST AKTIENGESELLSCHAFT, priority 1991, dated 1993)

What was measured:
[1] = Solubility in organic solvents; format: physicochemical; conditions: in CH2C12, CHCl3, Essigsäureethylester, Aceton, Ethanol and Isopropanol; isolated as amorphous solid
Excerpt: Die Pseurotine F1 /F2 werden als amorpher Feststoff isoliert und sind z.B. löslich in CH2C12, CHCl3, Essigsäureethylester, Aceton, Ethanol und Isopropanol. • FAB-MS: m/e = 418 (37 %, [M + H]^+), 400 (12 %) 382 (14 %) • Pseurotin F1: Rf = 0,29; Ethylacetat-H/Heptan (2 : 1) • Pseurotin F2: Rf = 0,20; Ethylacetat-H/Heptan (2:1) (dünnschichtchromatographisch aufgetrennt) Molmasse: 417, 12 (C21 H23NO8)

[2] = Stability in the solid state and in solution; format: physicochemical; conditions: solid state and solutions in the pH range between 3 and 8, in particular 5 and 7
Excerpt: Die Verbindungen der Formeln la und Ib sind im festen Zustand und in Lösungen im pH-Bereich zwischen 3 und 8, insbesondere 5 und 7, stabil und lassen sich damit in übliche galenische Zubereitungen einarbeiten.

Mäusen = assay: Apomorphine antagonism: inhibition of apomorphine-induced climbing in mice; format: in vivo; conditions: compound given 30 min (i.p.) or 60 min (p.o.) before apomorphine
Protocol: Die Wirkung der Verbindungen der Formeln la und Ib als Apomorphin Antagonisten wird an Mäusen getestet. Hierzu wird zunächst Apomorphin als 1 %ige Lösung (Verdünnungsmittel:Tylose, z.B. Methocel, Hoechst AG, Frankfurt, Deutschland) einmalig […] injiziert. Die Dosis ist so gewählt, daß sie bei 95 % der Mäuse für ca. 30 Minuten eine anhaltende Klettertätigkeit auslöst (1,5 mg Apomorphin/kg Maus; subcutane Injektion). Tiere, die noch vor der Apomorphingabe eine konstante Klettertätigkeit aufweisen, werden nicht im Test berücksichtigt. Pseurotin F1 oder F2 wird 30 bzw. 60 Min. vor Apomorphin appliziert (i.p. bzw. p.o.). Es wird viermal abgelesen: unmittelbar vor sowie 10, 20 und 30 Min nach Apomorphin-Injektion. Dabei wird das Kletterverhalten pro Maus beurteilt:
Testkriterium ist, ob eine Hemmung des durch Apomorphin verursachten Kletterns eintritt.

[3] = 10 min after apomorphine injection (1,5 mg/kg, s.c.), observed in the majority of treated mice
[4] = 20 min after apomorphine injection (1,5 mg/kg, s.c.), observed in nearly all animals

SMILES	Löslichkeit [1]	Stabilität [2]	Kletterverhalten pro Maus (Hemmung des durch Apomorphin verursachten Kletterns) (Mäusen; [3])	Kletterverhalten pro Maus (Hemmung des durch Apomorphin verursachten Kletterns) (Mäusen; [4])
CC/C=C\[C@H](O)[C@H](O)C1=C(C)C(=O)[C@]2(O1)C(=O)N[C@](O)(C(=O)c1ccccc1)[C@@H]2O [Pseurotin F1]	löslich	stabil	nur noch 1 oder 2 Pfoten an der Wand	deutliche Symptome in Form der Kletterhemmung (4 Pfoten am Boden)
CC/C=C\[C@H](O)[C@H](O)C1=C(C)C(=O)[C@]2(O1)C(=O)N[C@@](O)(C(=O)c1ccccc1)[C@@H]2O [Pseurotin F2]	löslich	stabil	nur noch 1 oder 2 Pfoten an der Wand	deutliche Symptome in Form der Kletterhemmung (4 Pfoten am Boden)
